Experimental data reported in patent publication US20140221475A1, “PLATINUM(IV) COMPLEXES AND PHARMACEUTICAL COMPOSITION CONTAINING THE SAME” (UNITECH CO., LTD., priority 2011, published 2014).

Assays:
Assay type in all cases: cell-based
[1] = test system: human gastric cancer cell (KATO III); test: Cell proliferation inhibition, MTS method, human gastric cancer cell KATO III
Experimental: (§1) The test solution was prepared by dissolving the (compound 1) into the DMSO (dimethylsulfoxide) with the concentration of 8 mg/ml.
(§2) The test was implemented by using the human lung cancer cell (LU99), two kind of the human gastric cancer cell (KATO III, MKN-45), the human prostate cancer cell (DU145), the human malignant melanoma cell (G-361), the human bladder cancer cell (T24), two kind of the human lymphoma cell (U937, Jurkat E6.1) and the human leukemia cell (HL60) as the cancer cell.
(§3) These cells were suspended in the each culture medium that the serum of 10% was added, and were dispensed in 96-well plate. And then, these were cultured in 5% CO2 at 37 degrees centigrade during a night. The test solution was prepared in the culture medium to the various concentrations, and was dispensed into the plate that the cells were set preliminarily. And further, these were cultured in 5% CO2 at 37 degrees centigrade for three days.
(§4) The cell proliferation after the medicine addition was measured on the 3rd day from the 1st day after the medicine addition by the MTS method (Kit for cell proliferation test manufactured by Promega Company, Cell Titer 96 Aqueous One Solution Cell Proliferation Assay).
(§5) The inhibition rate (%) of the cell proliferation was obtained from the measured MTS value by the following formula.
(§6) Inhibition rate(%)=(1−MTS value of medicine addition group/MTS value of medicine non-addition group)×100
(§7) Because the value which was obtained by the above-mentioned formula represents the inhibition rate of the cell proliferation, the higher the numerical value is, the higher the medicine effect is. It is deemed that the one whose value is 50% or more has the medicine effect.
(§8) The (compound 2) was prepared as the test solution, and the inhibition rate of the cell proliferation was measured by the method similar to the embodiment 7.

[2] = test system: human lymphoma cell (U937); test: Cell proliferation inhibition, MTS method, human lymphoma cell U937
Experimental: as §1, §2, §3, §4, §5, §6, §7, §8

[3] = test system: human lymphoma cell (Jurkat E6.1); test: Cell proliferation inhibition, MTS method, human lymphoma cell Jurkat E6.1
Experimental: as §1, §2, §3, §4, §5, §6, §7

[4] = test system: human leukemia cell (HL60); test: Cell proliferation inhibition, MTS method, human leukemia cell HL60
Experimental: as §1, §2, §3, §4, §5, §6, §7

[5] = test system: human prostate cancer cell (DU145); test: Cell proliferation inhibition, MTS method, human prostate cancer cell DU145
Experimental: as §2, §3, §4, §5, §6, §7, §8

[6] = test system: human bladder cancer cell (T24); test: Cell proliferation inhibition, MTS method, human bladder cancer cell T24
Experimental: as §2, §3, §4, §5, §6
Because the value which was obtained by the above-mentioned formula represents the inhibition rate of the cell proliferation, the higher the numerical value is, the higher the medicine effect is. It is deemed that the one whose value is 50% or more has the medicine effect. […]

[7] = test system: human lung cancer cell (LU99); test: Cell proliferation inhibition, MTS method, human lung cancer cell LU99
Experimental: as §2, §3, §4, §5, §6, §7
(§9) The (compound 5) was prepared as the test solution, and the inhibition rate of the cell proliferation was measured by the method similar to the embodiment 7.
(§10) The (compound 6) was prepared as the test solution, and the inhibition rate of the cell proliferation was measured by the method similar to the embodiment 7.

[8] = test system: human gastric cancer cell (MKN-45); test: Cell proliferation inhibition, MTS method, human gastric cancer cell MKN-45
Experimental: as §2, §3, §4, §5, §6, §7, §9, §10

[9] = test system: human malignant melanoma cell (G-361); test: Cell proliferation inhibition, MTS method, human malignant melanoma cell G-361
Experimental: as §2, §3, §4, §5, §6, §7, §9, §10

## NC1CCCC12CCCC2N.O=C1CC(=O)[O][Pt]([Cl])([Cl])[O]1 [Compound 1, dichloromalonato((1S,5S,6S)-spiro[4.4]nonane-1,6-diamine)platinum(IV)]
[1]; 5 μg/ml
  Inhibition rate of cell proliferation after 3 days from medicine addition: 53%
[1]; 10 μg/ml
  Inhibition rate of cell proliferation after 3 days from medicine addition: 75%
[1]; 20 μg/ml
  Inhibition rate of cell proliferation after 3 days from medicine addition: 88%
[2]; U937, 5 μg/ml
  Inhibition rate of cell proliferation after 3 days from medicine addition: 98%
[2]; U937, 10 μg/ml
  Inhibition rate of cell proliferation after 3 days from medicine addition: 102%
[2]; U937, 20 μg/ml
  Inhibition rate of cell proliferation after 3 days from medicine addition: 101%
[3]; Jurkat E6.1, 5 μg/ml
  Inhibition rate of cell proliferation after 3 days from medicine addition: 92%
[3]; Jurkat E6.1, 10 μg/ml
  Inhibition rate of cell proliferation after 3 days from medicine addition: 97%
[3]; Jurkat E6.1, 20 μg/ml
  Inhibition rate of cell proliferation after 3 days from medicine addition: 100%
[4]; HL60, 5 μg/ml
  Inhibition rate of cell proliferation after 3 days from medicine addition: 91%
[4]; HL60, 10 μg/ml
  Inhibition rate of cell proliferation after 3 days from medicine addition: 97%
[4]; HL60, 20 μg/ml
  Inhibition rate of cell proliferation after 3 days from medicine addition: 99%

## NC1CCCC12CCCC2N.O=C1CC(=O)[O][Pt]([Cl])([Cl])[O]1 [Compound 2, Dichloro complexes (G) of the malonato((R,R,R)-spiro[4,4]nonane-1,6-diamine)platinum(IV)]
[1]; 5 μg/ml
  Inhibition rate of cell proliferation after 3 days from medicine addition: 78%
[1]; 10 μg/ml
  Inhibition rate of cell proliferation after 3 days from medicine addition: 90%
[1]; 20 μg/ml
  Inhibition rate of cell proliferation after 3 days from medicine addition: 82%
[2]; U937, 5 μg/ml
  Inhibition rate of cell proliferation after 3 days from medicine addition: 100%
[2]; U937, 10 μg/ml
  Inhibition rate of cell proliferation after 3 days from medicine addition: 100%
[2]; U937, 20 μg/ml
  Inhibition rate of cell proliferation after 3 days from medicine addition: 100%
[5]; DU145, 5 μg/ml
  Inhibition rate of cell proliferation after 3 days from medicine addition: 51%
[5]; DU145, 10 μg/ml
  Inhibition rate of cell proliferation after 3 days from medicine addition: 76%
[5]; DU145, 20 μg/ml
  Inhibition rate of cell proliferation after 3 days from medicine addition: 84%
[6]; T24, 5 μg/ml
  Inhibition rate of cell proliferation after 3 days from medicine addition: 52%
[6]; T24, 10 μg/ml
  Inhibition rate of cell proliferation after 3 days from medicine addition: 77%
[6]; T24, 20 μg/ml
  Inhibition rate of cell proliferation after 3 days from medicine addition: 87%

## NC1CCCC12CCCC2N.[Cl][Pt]([Cl])([Cl])[Cl] [Compound 5, Tetrachloro((S,S,S)-spiro[4.4]nonane-1,6-diamine)platinum(IV)]
[6]; T24, 5 μg/ml
  Inhibition rate of cell proliferation after 3 days from medicine addition: 79%
[6]; T24, 10 μg/ml
  Inhibition rate of cell proliferation after 3 days from medicine addition: 86%
[6]; T24, 20 μg/ml
  Inhibition rate of cell proliferation after 3 days from medicine addition: 80%
[7]; LU99, 5 μg/ml
  Inhibition rate of cell proliferation after 3 days from medicine addition: 65%
[7]; LU99, 10 μg/ml
  Inhibition rate of cell proliferation after 3 days from medicine addition: 84%
[7]; LU99, 20 μg/ml
  Inhibition rate of cell proliferation after 3 days from medicine addition: 91%
[8]; MKN-45, 5 μg/ml
  Inhibition rate of cell proliferation after 3 days from medicine addition: 90%
[8]; MKN-45, 10 μg/ml
  Inhibition rate of cell proliferation after 3 days from medicine addition: 93%
[8]; MKN-45, 20 μg/ml
  Inhibition rate of cell proliferation after 3 days from medicine addition: 87%
[9]; G-361, 5 μg/ml
  Inhibition rate of cell proliferation after 3 days from medicine addition: 83%
[9]; G-361, 10 μg/ml
  Inhibition rate of cell proliferation after 3 days from medicine addition: 95%
[9]; G-361, 20 μg/ml
  Inhibition rate of cell proliferation after 3 days from medicine addition: 98%

## NC1CCCC12CCCC2N.[Cl][Pt]([Cl])([Cl])[Cl] [Compound 6, tetrachloro((R,R,R)-spiro[4.4]nonane-1,6-diamine)platinum(IV)]
[6]; T24, 5 μg/ml
  Inhibition rate of cell proliferation after 3 days from medicine addition: 78%
[6]; T24, 10 μg/ml
  Inhibition rate of cell proliferation after 3 days from medicine addition: 81%
[6]; T24, 20 μg/ml
  Inhibition rate of cell proliferation after 3 days from medicine addition: 81%
[7]; LU99, 5 μg/ml
  Inhibition rate of cell proliferation after 3 days from medicine addition: 89%
[7]; LU99, 10 μg/ml
  Inhibition rate of cell proliferation after 3 days from medicine addition: 96%
[7]; LU99, 20 μg/ml
  Inhibition rate of cell proliferation after 3 days from medicine addition: 98%
[8]; MKN-45, 5 μg/ml
  Inhibition rate of cell proliferation after 3 days from medicine addition: 88%
[8]; MKN-45, 10 μg/ml
  Inhibition rate of cell proliferation after 3 days from medicine addition: 80%
[8]; MKN-45, 20 μg/ml
  Inhibition rate of cell proliferation after 3 days from medicine addition: 76%
[9]; G-361, 5 μg/ml
  Inhibition rate of cell proliferation after 3 days from medicine addition: 89%
[9]; G-361, 10 μg/ml
  Inhibition rate of cell proliferation after 3 days from medicine addition: 96%
[9]; G-361, 20 μg/ml
  Inhibition rate of cell proliferation after 3 days from medicine addition: 98%

## O=C1[O][Pt]2([NH][C@@H]3CCCC[C@H]3[NH]2)[O]C1=O [Oxaliplatin, oxaliplatin, reference compound]
[1]; 5 μg/ml
  Inhibition rate of cell proliferation after 3 days from medicine addition: 58%
[1]; 10 μg/ml
  Inhibition rate of cell proliferation after 3 days from medicine addition: 75%
[1]; 20 μg/ml
  Inhibition rate of cell proliferation after 3 days from medicine addition: 87%
[2]; U937, 5 μg/ml
  Inhibition rate of cell proliferation after 3 days from medicine addition: 67%
[2]; U937, 10 μg/ml
  Inhibition rate of cell proliferation after 3 days from medicine addition: 90%
[2]; U937, 20 μg/ml
  Inhibition rate of cell proliferation after 3 days from medicine addition: 99%
[3]; Jurkat E6.1, 5 μg/ml
  Inhibition rate of cell proliferation after 3 days from medicine addition: 90%
[3]; Jurkat E6.1, 10 μg/ml
  Inhibition rate of cell proliferation after 3 days from medicine addition: 94%
[3]; Jurkat E6.1, 20 μg/ml
  Inhibition rate of cell proliferation after 3 days from medicine addition: 97%
[4]; HL60, 5 μg/ml
  Inhibition rate of cell proliferation after 3 days from medicine addition: 73%
[4]; HL60, 10 μg/ml
  Inhibition rate of cell proliferation after 3 days from medicine addition: 86%
[4]; HL60, 20 μg/ml
  Inhibition rate of cell proliferation after 3 days from medicine addition: 93%
[5]; DU145, 5 μg/ml
  Inhibition rate of cell proliferation after 3 days from medicine addition: 46%
[5]; DU145, 10 μg/ml
  Inhibition rate of cell proliferation after 3 days from medicine addition: 71%
[5]; DU145, 20 μg/ml
  Inhibition rate of cell proliferation after 3 days from medicine addition: 81%
[6]; T24, 5 μg/ml
  Inhibition rate of cell proliferation after 3 days from medicine addition: 38%
[6]; T24, 10 μg/ml
  Inhibition rate of cell proliferation after 3 days from medicine addition: 43%
[6]; T24, 20 μg/ml
  Inhibition rate of cell proliferation after 3 days from medicine addition: 48%
[7]; LU99, 5 μg/ml
  Inhibition rate of cell proliferation after 3 days from medicine addition: 38%
[7]; LU99, 10 μg/ml
  Inhibition rate of cell proliferation after 3 days from medicine addition: 40%
[7]; LU99, 20 μg/ml
  Inhibition rate of cell proliferation after 3 days from medicine addition: 49%
[8]; MKN-45, 5 μg/ml
  Inhibition rate of cell proliferation after 3 days from medicine addition: 73%
[8]; MKN-45, 10 μg/ml
  Inhibition rate of cell proliferation after 3 days from medicine addition: 82%
[8]; MKN-45, 20 μg/ml
  Inhibition rate of cell proliferation after 3 days from medicine addition: 87%
[9]; G-361, 5 μg/ml
  Inhibition rate of cell proliferation after 3 days from medicine addition: 50%
[9]; G-361, 10 μg/ml
  Inhibition rate of cell proliferation after 3 days from medicine addition: 59%
[9]; G-361, 20 μg/ml
  Inhibition rate of cell proliferation after 3 days from medicine addition: 74%
